# Laboratory results: article PMC4823954, “From fighting depression to conquering tumors: a novel tricyclic thiazepine compound as a tubulin polymerization inhibitor” (Cell Death & Disease, 2016)
# Key:
# Experiment in all cases: KINOMEscan
# Type in all cases: binding
# Settings in all cases: read-out: % Ctrl
# TRPM6 = biological target: T1, TRPM6 (Homo sapiens, UniProt Q9BX84)
# T1 construct: purchased DiscoveRx KINOMEscan
# In short: (§1)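 Competition binding panel of 442 non-mutant kinases: test compound at 5 and 10 μM competed with an active-site-directed ligand for 1 h with shaking. Bound kinase was eluted with 0.5 μM ligand and quantified by qPCR; %Ctrl = (compound − positive control)/(DMSO − positive control) × 100, lower meaning tighter binding.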
# [1] = biological target: T2, RSK4(Kin.Dom.1-N-terminal) (Homo sapiens, UniProt Q9UK32)
# T2 construct: RSK4(Kin.Dom.1-N-terminal); purchased DiscoveRx KINOMEscan
# In short: as §1
# NEK11 = biological target: T3, NEK11 (Homo sapiens, UniProt Q8NG66)
# T3 construct: purchased DiscoveRx KINOMEscan
# In short: as §1
# [2] = biological target: T4, JAK2(JH1domain-catalytic) (Homo sapiens, UniProt O60674)
# T4 construct: JAK2(JH1domain-catalytic); purchased DiscoveRx KINOMEscan
# In short: as §1
# p38-alpha = biological target: T5, p38-alpha (Homo sapiens, UniProt Q16539)
# T5 construct: purchased DiscoveRx KINOMEscan
# In short: as §1
# ACVRL1 = biological target: T6, ACVRL1 (Homo sapiens, UniProt P37023)
# T6 construct: purchased DiscoveRx KINOMEscan
# In short: as §1
# NEK7 = biological target: T7, NEK7 (Homo sapiens, UniProt Q8TDX7)
# T7 construct: purchased DiscoveRx KINOMEscan
# In short: as §1
# ACVR1 = biological target: T8, ACVR1 (Homo sapiens, UniProt Q04771)
# T8 construct: purchased DiscoveRx KINOMEscan
# In short: as §1
# RIOK2 = biological target: T9, RIOK2 (Homo sapiens, UniProt Q9BVS4)
# T9 construct: purchased DiscoveRx KINOMEscan
# In short: as §1
# p38-gamma = biological target: T10, p38-gamma (Homo sapiens, UniProt P53778)
# T10 construct: purchased DiscoveRx KINOMEscan
# In short: as §1
# MINK = biological target: T11, MINK (Homo sapiens, UniProt Q8N4C8)
# T11 construct: purchased DiscoveRx KINOMEscan
# In short: as §1
# AMPK-alpha2 = biological target: T12, AMPK-alpha2 (Homo sapiens, UniProt P54646)
# T12 construct: purchased DiscoveRx KINOMEscan
# In short: as §1
# EPHB4 = biological target: T13, EPHB4 (Homo sapiens, UniProt P54760)
# T13 construct: purchased DiscoveRx KINOMEscan
# In short: as §1
# PIK3CA(I800L) = biological target: T14, PIK3CA(I800L) (Homo sapiens, UniProt P42336, I800L)
# T14 construct: purchased DiscoveRx KINOMEscan
# CTK = biological target: T15, CTK (Homo sapiens, UniProt P42679)
# T15 construct: purchased DiscoveRx KINOMEscan
# In short: as §1
# MET = biological target: T16, MET (Homo sapiens, UniProt P08581)
# T16 construct: purchased DiscoveRx KINOMEscan
# In short: as §1
# ROS1 = biological target: T17, ROS1 (Homo sapiens, UniProt P08922)
# T17 construct: purchased DiscoveRx KINOMEscan
# In short: as §1
# GAK = biological target: T18, GAK (Homo sapiens, UniProt O14976)
# T18 construct: purchased DiscoveRx KINOMEscan
# In short: as §1
# IKK-beta = biological target: T19, IKK-beta (Homo sapiens, UniProt O14920)
# T19 construct: purchased DiscoveRx KINOMEscan
# In short: as §1
# KIT(D816H) = biological target: T20, KIT(D816H) (Homo sapiens, UniProt P10721, D816H)
# T20 construct: purchased DiscoveRx KINOMEscan
# EIF2AK1 = biological target: T21, EIF2AK1 (Homo sapiens, UniProt Q9BQI3)
# T21 construct: purchased DiscoveRx KINOMEscan
# In short: as §1
# TAK1 = biological target: T22, TAK1 (Homo sapiens, UniProt O43318)
# T22 construct: purchased DiscoveRx KINOMEscan
# In short: as §1
# BMX = biological target: T23, BMX (Homo sapiens, UniProt P51813)
# T23 construct: purchased DiscoveRx KINOMEscan
# In short: as §1
# RET = biological target: T24, RET (Homo sapiens, UniProt P07949)
# T24 construct: purchased DiscoveRx KINOMEscan
# In short: as §1
# PCTK1 = biological target: T25, PCTK1 (Homo sapiens, UniProt Q00536)
# T25 construct: purchased DiscoveRx KINOMEscan
# In short: as §1
# TAOK1 = biological target: T26, TAOK1 (Homo sapiens, UniProt Q7L7X3)
# T26 construct: purchased DiscoveRx KINOMEscan
# In short: as §1
# TIE2 = biological target: T27, TIE2 (Homo sapiens, UniProt Q02763)
# T27 construct: purchased DiscoveRx KINOMEscan
# In short: as §1
# PIK3CA(M1043I) = biological target: T28, PIK3CA(M1043I) (Homo sapiens, UniProt P42336, M1043I)
# T28 construct: purchased DiscoveRx KINOMEscan
# TRKC = biological target: T29, TRKC (Homo sapiens, UniProt Q16288)
# T29 construct: purchased DiscoveRx KINOMEscan
# In short: as §1
# T20 sequence (P10721 26-976 D816H): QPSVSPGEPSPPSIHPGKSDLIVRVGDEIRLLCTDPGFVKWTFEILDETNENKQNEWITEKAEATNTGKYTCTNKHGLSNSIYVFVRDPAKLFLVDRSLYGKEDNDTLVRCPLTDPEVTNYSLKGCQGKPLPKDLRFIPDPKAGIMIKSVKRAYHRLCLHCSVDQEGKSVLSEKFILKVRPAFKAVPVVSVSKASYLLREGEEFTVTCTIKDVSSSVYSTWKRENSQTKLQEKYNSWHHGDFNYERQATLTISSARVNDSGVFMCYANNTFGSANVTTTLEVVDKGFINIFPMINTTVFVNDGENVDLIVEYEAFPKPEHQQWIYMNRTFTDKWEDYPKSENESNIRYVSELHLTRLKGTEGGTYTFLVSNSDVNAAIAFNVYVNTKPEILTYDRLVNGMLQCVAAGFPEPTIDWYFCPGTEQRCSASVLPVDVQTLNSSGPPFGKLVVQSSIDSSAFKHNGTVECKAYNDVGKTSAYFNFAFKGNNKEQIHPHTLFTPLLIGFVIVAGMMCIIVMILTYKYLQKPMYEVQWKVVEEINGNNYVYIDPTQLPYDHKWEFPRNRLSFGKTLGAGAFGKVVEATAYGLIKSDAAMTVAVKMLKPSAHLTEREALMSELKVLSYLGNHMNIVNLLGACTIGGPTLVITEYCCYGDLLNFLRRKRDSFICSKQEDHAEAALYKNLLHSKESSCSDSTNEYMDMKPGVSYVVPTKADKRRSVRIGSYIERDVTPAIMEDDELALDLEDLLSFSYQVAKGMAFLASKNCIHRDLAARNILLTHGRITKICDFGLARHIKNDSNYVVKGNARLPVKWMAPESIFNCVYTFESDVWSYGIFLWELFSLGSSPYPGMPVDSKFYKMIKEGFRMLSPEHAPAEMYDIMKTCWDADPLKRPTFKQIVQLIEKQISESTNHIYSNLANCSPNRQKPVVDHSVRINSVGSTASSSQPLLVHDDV
# T19 sequence (O14920 whole entry): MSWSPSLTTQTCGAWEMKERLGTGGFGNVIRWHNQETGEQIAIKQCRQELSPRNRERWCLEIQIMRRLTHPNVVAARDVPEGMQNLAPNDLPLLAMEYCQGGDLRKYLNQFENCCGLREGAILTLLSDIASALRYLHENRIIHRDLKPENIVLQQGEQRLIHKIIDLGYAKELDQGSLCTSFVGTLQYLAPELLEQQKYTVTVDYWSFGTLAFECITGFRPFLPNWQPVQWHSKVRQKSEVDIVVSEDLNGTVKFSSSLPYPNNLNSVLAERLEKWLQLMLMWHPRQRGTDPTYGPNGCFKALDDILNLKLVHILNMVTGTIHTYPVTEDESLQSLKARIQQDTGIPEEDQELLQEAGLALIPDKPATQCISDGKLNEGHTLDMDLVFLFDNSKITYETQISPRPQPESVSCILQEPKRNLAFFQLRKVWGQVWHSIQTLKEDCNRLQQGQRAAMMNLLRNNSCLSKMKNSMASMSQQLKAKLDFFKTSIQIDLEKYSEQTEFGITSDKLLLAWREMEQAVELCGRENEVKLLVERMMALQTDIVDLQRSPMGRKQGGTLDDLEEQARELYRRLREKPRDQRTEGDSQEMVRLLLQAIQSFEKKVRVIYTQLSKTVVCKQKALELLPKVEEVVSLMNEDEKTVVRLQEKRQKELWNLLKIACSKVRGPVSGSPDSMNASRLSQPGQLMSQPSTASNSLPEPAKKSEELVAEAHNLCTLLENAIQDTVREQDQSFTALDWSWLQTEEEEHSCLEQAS
# T27 sequence (Q02763 23-1124): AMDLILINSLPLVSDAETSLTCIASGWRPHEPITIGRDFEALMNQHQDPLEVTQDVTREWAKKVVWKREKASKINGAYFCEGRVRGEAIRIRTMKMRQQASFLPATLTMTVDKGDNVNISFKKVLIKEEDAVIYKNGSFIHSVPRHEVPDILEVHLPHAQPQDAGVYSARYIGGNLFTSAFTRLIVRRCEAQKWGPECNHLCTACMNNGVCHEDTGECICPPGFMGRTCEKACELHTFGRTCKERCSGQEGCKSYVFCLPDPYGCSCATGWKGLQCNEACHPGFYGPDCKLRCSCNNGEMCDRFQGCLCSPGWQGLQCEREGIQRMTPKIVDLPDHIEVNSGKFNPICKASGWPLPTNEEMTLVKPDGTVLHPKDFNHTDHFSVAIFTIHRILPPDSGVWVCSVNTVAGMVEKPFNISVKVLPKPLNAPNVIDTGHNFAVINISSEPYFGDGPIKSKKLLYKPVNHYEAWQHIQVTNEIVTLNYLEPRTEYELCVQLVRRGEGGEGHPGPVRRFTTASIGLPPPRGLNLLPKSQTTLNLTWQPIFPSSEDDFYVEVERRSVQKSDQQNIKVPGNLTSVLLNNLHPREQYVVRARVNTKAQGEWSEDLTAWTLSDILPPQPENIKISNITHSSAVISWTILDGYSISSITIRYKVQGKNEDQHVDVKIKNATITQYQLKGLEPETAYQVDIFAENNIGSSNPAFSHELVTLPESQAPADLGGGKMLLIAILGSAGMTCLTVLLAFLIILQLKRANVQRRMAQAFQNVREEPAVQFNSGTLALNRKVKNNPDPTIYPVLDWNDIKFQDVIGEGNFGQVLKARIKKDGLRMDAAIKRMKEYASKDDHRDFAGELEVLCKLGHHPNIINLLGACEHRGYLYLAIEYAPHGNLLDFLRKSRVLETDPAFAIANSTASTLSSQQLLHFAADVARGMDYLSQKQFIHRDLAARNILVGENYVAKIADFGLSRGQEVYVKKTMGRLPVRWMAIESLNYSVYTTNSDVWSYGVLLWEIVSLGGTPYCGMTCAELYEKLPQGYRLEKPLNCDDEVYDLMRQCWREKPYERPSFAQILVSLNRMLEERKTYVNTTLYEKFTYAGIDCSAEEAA
# T8 sequence (Q04771 21-509): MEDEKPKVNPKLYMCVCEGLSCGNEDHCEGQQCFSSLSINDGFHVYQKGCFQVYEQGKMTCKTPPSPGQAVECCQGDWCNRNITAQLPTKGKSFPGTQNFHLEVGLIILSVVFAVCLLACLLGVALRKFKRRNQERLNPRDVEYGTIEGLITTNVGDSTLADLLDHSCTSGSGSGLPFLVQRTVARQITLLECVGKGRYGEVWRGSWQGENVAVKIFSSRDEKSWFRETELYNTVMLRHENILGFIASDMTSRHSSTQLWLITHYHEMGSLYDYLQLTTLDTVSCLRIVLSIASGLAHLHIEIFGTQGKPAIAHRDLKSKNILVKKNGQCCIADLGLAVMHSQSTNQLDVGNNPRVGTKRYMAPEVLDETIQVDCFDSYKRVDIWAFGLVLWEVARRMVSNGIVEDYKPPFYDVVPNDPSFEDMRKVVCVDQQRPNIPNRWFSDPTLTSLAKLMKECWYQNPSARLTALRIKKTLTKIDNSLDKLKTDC
# T6 sequence (P37023 22-503): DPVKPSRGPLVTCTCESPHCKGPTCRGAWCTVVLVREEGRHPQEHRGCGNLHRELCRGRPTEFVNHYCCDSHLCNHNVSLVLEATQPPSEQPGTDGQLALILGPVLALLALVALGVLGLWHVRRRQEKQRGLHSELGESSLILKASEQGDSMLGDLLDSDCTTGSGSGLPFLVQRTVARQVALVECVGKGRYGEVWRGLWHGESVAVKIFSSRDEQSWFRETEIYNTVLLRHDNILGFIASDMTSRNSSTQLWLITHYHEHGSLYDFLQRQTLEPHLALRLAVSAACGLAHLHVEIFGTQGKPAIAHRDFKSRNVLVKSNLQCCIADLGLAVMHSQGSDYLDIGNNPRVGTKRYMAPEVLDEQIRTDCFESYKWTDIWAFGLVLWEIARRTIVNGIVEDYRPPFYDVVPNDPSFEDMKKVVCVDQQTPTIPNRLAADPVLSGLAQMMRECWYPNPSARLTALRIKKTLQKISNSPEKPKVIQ
# T24 sequence (P07949 29-1114): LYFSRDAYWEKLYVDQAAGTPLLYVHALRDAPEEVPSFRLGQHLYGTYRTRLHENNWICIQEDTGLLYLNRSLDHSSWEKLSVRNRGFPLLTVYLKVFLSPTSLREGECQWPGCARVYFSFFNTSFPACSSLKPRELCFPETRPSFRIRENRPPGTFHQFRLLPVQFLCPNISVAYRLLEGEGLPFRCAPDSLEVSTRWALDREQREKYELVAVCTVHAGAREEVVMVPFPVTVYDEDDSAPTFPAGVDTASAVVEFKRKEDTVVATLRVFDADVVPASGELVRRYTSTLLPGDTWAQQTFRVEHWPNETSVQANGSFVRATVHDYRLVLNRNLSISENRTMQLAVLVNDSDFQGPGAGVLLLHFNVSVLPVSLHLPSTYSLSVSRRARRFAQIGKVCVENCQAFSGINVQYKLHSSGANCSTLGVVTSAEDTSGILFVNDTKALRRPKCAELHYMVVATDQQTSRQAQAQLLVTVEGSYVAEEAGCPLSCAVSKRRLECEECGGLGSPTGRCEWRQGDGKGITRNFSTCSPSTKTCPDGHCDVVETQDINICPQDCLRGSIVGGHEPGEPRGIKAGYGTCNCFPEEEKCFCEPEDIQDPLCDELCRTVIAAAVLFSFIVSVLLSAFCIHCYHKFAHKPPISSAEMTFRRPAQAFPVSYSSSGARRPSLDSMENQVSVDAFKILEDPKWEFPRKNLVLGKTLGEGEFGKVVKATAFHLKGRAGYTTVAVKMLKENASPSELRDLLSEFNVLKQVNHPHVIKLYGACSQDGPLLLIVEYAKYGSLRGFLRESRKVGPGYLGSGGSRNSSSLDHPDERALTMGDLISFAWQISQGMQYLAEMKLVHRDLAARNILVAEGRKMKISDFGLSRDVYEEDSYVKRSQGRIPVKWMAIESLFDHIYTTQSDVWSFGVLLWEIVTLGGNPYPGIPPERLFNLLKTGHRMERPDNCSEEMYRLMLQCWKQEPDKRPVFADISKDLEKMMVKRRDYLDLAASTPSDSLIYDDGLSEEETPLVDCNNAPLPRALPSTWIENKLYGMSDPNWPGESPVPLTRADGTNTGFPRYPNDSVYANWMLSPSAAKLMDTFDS
smiles,measurement,setting,value
"Cc1ccc(C2=Nc3cccnc3S(=O)(=O)c3ccccc32)cc1 [TBPT, 6-(p-tolyl)benzo[f] pyrido[2,3-b][1,4] thiazepine 11,11-dioxide]",remaining binding at 5 µM,TRPM6; 5 μM,100%
same,remaining binding at 10 µM,TRPM6; 10 μM,85%
same,remaining binding at 5 µM,[1]; 5 μM,83%
same,remaining binding at 10 µM,[1]; 10 μM,94%
same,remaining binding at 5 µM,NEK11; 5 μM,43%
same,remaining binding at 10 µM,NEK11; 10 μM,100%
same,remaining binding at 5 µM,[2]; 5 μM,84%
same,remaining binding at 10 µM,[2]; 10 μM,98%
same,remaining binding at 5 µM,p38-alpha; 5 μM,63%
same,remaining binding at 10 µM,p38-alpha; 10 μM,100%
same,remaining binding at 5 µM,ACVRL1; 5 μM,100%
same,remaining binding at 10 µM,ACVRL1; 10 μM,71%
same,remaining binding at 5 µM,NEK7; 5 μM,100%
same,remaining binding at 10 µM,NEK7; 10 μM,89%
same,remaining binding at 5 µM,ACVR1; 5 μM,100%
same,remaining binding at 10 µM,ACVR1; 10 μM,100%
same,remaining binding at 5 µM,RIOK2; 5 μM,95%
same,remaining binding at 10 µM,RIOK2; 10 μM,100%
same,remaining binding at 5 µM,p38-gamma; 5 μM,100%
same,remaining binding at 10 µM,p38-gamma; 10 μM,88%
same,remaining binding at 5 µM,MINK; 5 μM,89%
same,remaining binding at 10 µM,MINK; 10 μM,83%
same,remaining binding at 5 µM,AMPK-alpha2; 5 μM,81%
same,remaining binding at 10 µM,AMPK-alpha2; 10 μM,95%
same,remaining binding at 5 µM,EPHB4; 5 μM,100%
same,remaining binding at 10 µM,EPHB4; 10 μM,98%
same,remaining binding at 5 µM,PIK3CA(I800L); 5 μM,98%
same,remaining binding at 10 µM,PIK3CA(I800L); 10 μM,72%
same,remaining binding at 5 µM,CTK; 5 μM,94%
same,remaining binding at 10 µM,CTK; 10 μM,100%
same,remaining binding at 5 µM,MET; 5 μM,100%
same,remaining binding at 10 µM,MET; 10 μM,92%
same,remaining binding at 5 µM,ROS1; 5 μM,100%
same,remaining binding at 10 µM,ROS1; 10 μM,100%
same,remaining binding at 5 µM,GAK; 5 μM,100%
same,remaining binding at 10 µM,GAK; 10 μM,90%
same,remaining binding at 5 µM,IKK-beta; 5 μM,84%
same,remaining binding at 10 µM,IKK-beta; 10 μM,98%
same,remaining binding at 5 µM,KIT(D816H); 5 μM,71%
same,remaining binding at 10 µM,KIT(D816H); 10 μM,100%
same,remaining binding at 5 µM,EIF2AK1; 5 μM,100%
same,remaining binding at 10 µM,EIF2AK1; 10 μM,100%
same,remaining binding at 5 µM,TAK1; 5 μM,87%
same,remaining binding at 10 µM,TAK1; 10 μM,93%
same,remaining binding at 5 µM,BMX; 5 μM,92%
same,remaining binding at 10 µM,BMX; 10 μM,93%
same,remaining binding at 5 µM,RET; 5 μM,100%
same,remaining binding at 10 µM,RET; 10 μM,87%
same,remaining binding at 5 µM,PCTK1; 5 μM,90%
same,remaining binding at 10 µM,PCTK1; 10 μM,100%
same,remaining binding at 5 µM,TAOK1; 5 μM,100%
same,remaining binding at 10 µM,TAOK1; 10 μM,100%
same,remaining binding at 5 µM,TIE2; 5 μM,100%
same,remaining binding at 10 µM,TIE2; 10 μM,91%
same,remaining binding at 5 µM,PIK3CA(M1043I); 5 μM,100%
same,remaining binding at 10 µM,PIK3CA(M1043I); 10 μM,100%
same,remaining binding at 5 µM,TRKC; 5 μM,100%
same,remaining binding at 10 µM,TRKC; 10 μM,96%
